According to publication PMC9059125 (Journal of Medicinal Chemistry, 2022):

Experiments:
[1] = simulated gi fluid, pH 6.8
[2] = system: OTR; settings: cited from earlier work
[3] = simulated gi fluid, pH 1.2
[4] = in vitro; settings: pig, simulated gi fluid, pH 1.2, t1/2 SGF
[5] = in vitro; settings: pig, simulated gi fluid, pH 6.8
[6] = target: T1, human oxytocin receptor (OTR) (Homo sapiens, UniProt P30559); settings: cited from earlier work
T1 construct: NIMH PDSP (data provider)
T1 sequence (P30559 1-389): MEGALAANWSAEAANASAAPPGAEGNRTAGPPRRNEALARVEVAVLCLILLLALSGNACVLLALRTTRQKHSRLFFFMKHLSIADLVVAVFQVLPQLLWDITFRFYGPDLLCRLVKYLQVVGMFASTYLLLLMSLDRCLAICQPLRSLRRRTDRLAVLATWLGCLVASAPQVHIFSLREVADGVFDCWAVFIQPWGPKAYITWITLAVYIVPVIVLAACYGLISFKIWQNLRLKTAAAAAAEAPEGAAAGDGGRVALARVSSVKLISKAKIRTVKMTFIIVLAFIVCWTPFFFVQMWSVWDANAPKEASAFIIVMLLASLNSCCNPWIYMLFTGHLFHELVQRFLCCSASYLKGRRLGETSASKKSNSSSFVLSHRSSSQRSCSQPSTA

Row | SMILES | t1/2 SIF [1] [h] | agonistic activity at the OTR (in words) [2] | t1/2 SGF [3] [h] | half-life [4] [h] | half-life [5] [h] | activity at the OTR (in words) [6]
1 | CC[C@H](C)[C@@H]1NC(=O)[C@@H]2CCCN2C(=O)[C@H](Cc2c[nH]c3ccccc23)NC(=O)[C@H](CO)NC(=O)[C@@H]2CSSC[C@@H]3NC(=O)[C@H]([C@@H](C)O)NC(=O)[C@H](CCC(=O)O)NC(=O)CNC(=O)[C@@H]4CSSC[C@H](NC(=O)CNC(=O)[C@H](CCC(N)=O)NC(=O)[C@H]([C@@H](C)O)NC(=O)[C@H](Cc5ccc(O)cc5)NC(=O)[C@H](CSSC[C@H](NC1=O)C(=O)N[C@@H](CCCCN)C(=O)N[C@@H](CCCNC(=N)N)C(=O)N[C@@H](CC(N)=O)C(=O)NCC(=O)N[C@@H](CC(C)C)C(=O)N1CCC[C@H]1C(=O)N[C@@H](C(C)C)C(=O)N4)NC(=O)[C@H]([C@@H](C)O)NC(=O)CNC(=O)[C@H](CC(C)C)NC(=O)[C@H]([C@@H](C)O)NC3=O)C(=O)N[C@@H]([C@@H](C)O)C(=O)N2 [Kalata B7] | >24 | weak inherent agonistic activity | >24 | – | – | –
2 | CC[C@H](C)[C@@H]1NC(=O)[C@@H]2CCCN2C(=O)[C@@H]2CCCN2C(=O)[C@H]([C@@H](C)CC)NC(=O)[C@H](CO)NC(=O)[C@H](CCCCN)NC(=O)[C@H]([C@@H](C)O)NC(=O)[C@@H]2CSSC[C@H](NC1=O)C(=O)N[C@@H](Cc1ccccc1)C(=O)N1CCC[C@H]1C(=O)N[C@@H](CC(=O)O)C(=O)NCC(=O)N[C@@H](CCCNC(=N)N)C(=O)N2 [SFTI-1] | – | – | – | > 24 | 16.3 ± 2.7 | –
3 | CC[C@@H](C)[C@H]1NC(=O)[C@@H](CCC(N)=O)NC(=O)[C@@H](CC(N)=O)NC(=O)[C@H](NC(=O)[C@H]2CCCN2C(=O)[C@@H](CC(C)C)NC(=O)CN)CSSC[C@H](C(N)=O)NC(=O)[C@@H](Cc2ccc(O)cc2)NC1=O [all-D-retroinverse-OT] | – | – | – | – | > 24 | inactive
